These results are taken from US20170369492A1 (Takeda Pharmaceutical Company Limited, priority 2014, published 2017).

Each structure is given as a SMILES string.

In the assay the target is T1, human GPR43 (Homo sapiens, UniProt O15552).
T1 construct: expressed in transfected cells
T1 sequence (O15552 1-330): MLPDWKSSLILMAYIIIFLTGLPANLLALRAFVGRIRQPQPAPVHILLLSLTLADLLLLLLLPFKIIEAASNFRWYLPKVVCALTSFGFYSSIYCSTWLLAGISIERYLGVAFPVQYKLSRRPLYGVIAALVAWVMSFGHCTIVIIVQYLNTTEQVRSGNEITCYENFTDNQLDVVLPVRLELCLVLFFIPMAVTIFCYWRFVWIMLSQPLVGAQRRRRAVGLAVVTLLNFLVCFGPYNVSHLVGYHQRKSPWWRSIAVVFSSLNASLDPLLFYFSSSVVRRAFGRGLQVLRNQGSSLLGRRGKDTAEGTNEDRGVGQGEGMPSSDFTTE
As to the kind of experiment: Ca-Flux Functional Assay: Determination of Agonist/Positive Allosteric Modulator (PAM) Activity. In kind it is cell-based. The note with it: CHO-K1 Gα16 cells stably expressing human GPR43; compound added in the presence of EC20 sodium acetate; intracellular Ca2+ by FLIPR; agonist/PAM activity not distinguished. How it is done:
Ca-Flux Functional Assay: Determination of Agonist/Positive Allosteric Modulator (PAM) Activity
GPR43 agonist/PAM activity was determined by measuring changes in intracellular calcium levels using a Ca^2+ sensitive fluorescent dye. The changes in fluorescent signal were monitored by FLIPR (manufactured by Molecular Devices). GPR43 mediated increases in intracellular Ca^2+ concentration were readily detected upon activation with sodium acetate. Prior to the assay (24 hours), CHO-K1 Gα16 cells stably expressing human GPR43 were-seeded in cell culture medium in black, clear-bottom 384-well plates (Corning Inc) and grown overnight at 37° C., 5% CO2. On the day of the assay, cell culture media was removed and cells were loaded with Calcium 5 Dye (Molecular Devices) diluted in HBSS containing 25 mM HEPES, 2.5 mM Probenecid, 0.1% BSA for 1 hour at 37° C., 5% CO2. 10 point half log concentration response curves of sodium acetate from 10 mM were conducted prior to the testing of compounds to calculate the sodium acetate concentration that produces 20% of the maximal response (EC20). Test compounds (at to point half log concentration response curves from 10 μM) were added in the presence of sodium acetate to achieve a final concentration that produces approximately 20% maximal response as calculated from the previous experiment. The changes in fluorescent signal were monitored by FLIPR upon addition of the compound/EC20 sodium acetate mix. The EC50 values were determined from ten point concentration response curves. Curves were generated using the average of two wells for each data point.
The above assay detects both GPR43 receptor agonists and positive allosteric modulators of the GPR43 receptor, without distinguishing between the two. Activity in either regard is useful in the treatment of conditions associated with GPR43 receptor activity.
Consider `CC1CCCCC1n1c(N)c(S(=O)(=O)c2ccccc2)c2nccnc21` (mixture of isomers) [Example 44, 5-(2-methylcyclohexyl)-7-(phenylsulfonyl)-5H-pyrrolo[2,3-b]pyrazin-6-amine], for which the EC50 is 1080 nM.
As to `CC1CN(S(=O)(=O)c2c(N)n(C3CCCCC3)c3nccnc23)CC(C)O1` (mixture of isomers) [Example 76, 5-cyclohexyl-7-(2,6-dimethylmorpholine-4-sulfonyl)-5H-pyrrolo[2,3-b]pyrazin-6-amine], the EC50 was 1530 nM.
As to `Nc1c(S(=O)(=O)c2ccccc2)c2nccnc2n1[C@@H]1C[C@H]2CC[C@@H]1C2` (relative stereo) [Example 53, 5-((1R*,2R*,4S*)-bicyclo[2.2.1]heptan-2-yl)-7-(phenylsulfonyl)-5H-pyrrolo[2,3-b)pyrazin-6-amine], the EC50 was 275 nM.
Consider `Nc1c(S(=O)(=O)c2ccccc2)c2nccnc2n1C1CCCCC1` [Example 1, 7-(benzenesulfonyl)-5-cyclohexyl-5H-pyrrolo[2,3-b]pyrazin-6-amine], for which the EC50 was found to be 261 nM.
To `Cc1ccc(S(=O)(=O)c2c(N)n(C3CCCCCC3)c3nccnc23)cc1` [Example 2, 5-cycloheptyl-7-[(4-methylbenzene)sulfonyl]-5H-pyrrolo[2,3-b]pyrazin-6-amine] belongs 218 nM; to `Cc1ccc(S(=O)(=O)c2c(N)n(C3CCCCC3)c3nccnc23)cc1` [Example 3], 122 nM; to `Cc1ccc(S(=O)(=O)c2c(N)n(C3CCCC3)c3nccnc23)cc1` [Example 4, 5-cyclopentyl-7-[(4-methylbenzene)sulfonyl]-5H-pyrrolo[2,3-b]pyrazin-6-amine], 908 nM.
To `Nc1c(S(=O)(=O)c2ccc(Cl)cc2)c2nccnc2n1C1CCCCC1` [Example 5, 7-[(4-chlorobenzene)sulfonyl]-5-cyclohexyl-5H-pyrrolo[2,3-b]pyrazin-6-amine] belongs 195 nM; to `Nc1c(S(=O)(=O)c2ccc(F)cc2)c2nccnc2n1C1CCCCC1` [Example 6, 5-cyclohexyl-7-[(4-fluorobenzene)sulfonyl]-5H-pyrrolo[2,3-b]pyrazin-6-amine], 301 nM.
For the molecule `CC(C)Oc1ccc(S(=O)(=O)c2c(N)n(C3CCCCC3)c3nccnc23)cc1` [Example 7, 5-cyclohexyl-7-{[4-(propan-2-yloxy)benzene]sulfonyl}-5H-pyrrolo[2,3-b]pyrazin-6-amine], the EC50 was 172 nM.
In the case of `Nc1c(S(=O)(=O)c2cccs2)c2nccnc2n1C1CCCCC1` [Example 8, 5-cyclohexyl-7-(thiophene-2-sulfonyl)-5H-pyrrolo[2,3-b]pyrazin-6-amine] it was 118 nM.
To `Nc1c(S(=O)(=O)c2ccccc2)c2ncccc2n1C1CCCCC1` [Example 9, 3-(benzenesulfonyl)-1-cyclohexyl-1H-[3,2-b]pyridin-2-amine] belongs 1250 nM.
In the case of `Cc1ccc(S(=O)(=O)c2c(N)n(C3CCCC3)c3cccnc23)cc1` [Example 10, 1-cyclopentyl-3-[(4-methylbenzene)sulfonyl]-1H-pyrrolo[3,2-b]pyridin-2-amine] it was 2300 nM.
Turning to `Cc1ccc(S(=O)(=O)c2c(N)n(C3CCCCC3)c3ncccc23)cc1` [Example 11, 1-cyclohexyl-3-[(4-methylbenzene)sulfonyl]-1H-pyrrolo[2,3-b]pyridin-2-amine], the EC50 was found to be 753 nM.
Turning to `Nc1c(S(=O)(=O)C2CCCCC2)c2nccnc2n1C1CCCCC1` [Example 12, 7-(cyclohexanesulfonyl)-5-cyclohexyl-5-pyrrolo[2,3-b]pyrazin-6-amine], the EC50 amounted to 671 nM.
To `COc1ccc(S(=O)(=O)c2c(N)n(C3CCC(F)(F)CC3)c3nccnc23)cc1` [Example 13, 5-(4,4-difluorocyclohexyl)-7-[(4-methoxybenzene)sulfonyl]-5H-pyrrolo[2,3-b]pyrazin-6-amine] belongs 129 nM.
`COc1ccc(S(=O)(=O)c2c(N)n(C3CCC(F)(F)CC3)c3ncccc23)cc1` [Example 14, 1-(4,4-difluorocyclohexyl)-3-[(4-methoxybenzene)sulfonyl]-1H-pyrrolo[2,3-b]pyridin-2-amine]: the EC50 came out at 138 nM.
Consider `Nc1c(S(=O)(=O)c2ccccc2)c2cccnc2n1C1CCCCC1` [Example 15, 3-(benzenesulfonyl)-1-cyclohexyl-1H-pyrrolo[2,3-b]pyridin-2-amine], for which the EC50 worked out at 381 nM.
Regarding `Nc1c(S(=O)(=O)c2ccccc2)c2cncnc2n1C1CCCCC1` [Example 16], the EC50 stood at 337 nM.
In the case of `Nc1c(S(=O)(=O)c2ccccc2)c2cccnc2n1C1CCC(F)(F)CC1` [Example 17, 3-(benzenesulfonyl)-1-(4,4-difluorocyclohexyl)-1H-pyrrolo[2,3-b]pyridin-2-amine] it was 559 nM.
To `Nc1c(S(=O)(=O)c2ccccc2)c2ncncc2n1C1CCCCC1` [Example 19, 7-(benzenesulfonyl)-5-cyclohexyl-5H-pyrrolo[3,2-d]pyrimidin-6-amine] belongs 1780 nM; to `Nc1c(S(=O)(=O)c2ccccc2)c2ccncc2n1C1CCCCC1` [Example 20, 3-(benzenesulfonyl)-1-cyclohexyl-1H-pyrrolo[2,3-]pyridin-2-amine], 2360 nM.
In the case of `Nc1c(S(=O)(=O)c2ccccc2)c2ncccc2n1C1CCC(F)(F)CC1` [Example 21, 3-(benzenesulfonyl)-1-(4,4-difluorocyclohexyl)-1H-pyrrolo[3,2-b]pyridin-2-amine], the EC50 amounted to 282 nM.
In the case of `COc1ccc(S(=O)(=O)c2c(N)n(C3CCC(F)(F)CC3)c3cccnc23)cc1` [Example 22, 1-(4,4-difluorocyclohexyl)-3-[(4-methoxybenzene)sulfonyl]-1H-pyrrolo[3,2-b]pyridin-2-amine], the EC50 was found to be 167 nM.
As for `Nc1c(S(=O)(=O)c2ccccc2)c2cnccc2n1C1CCCCC1` [Example 23, 3-(benzenesulfonyl)-1-cyclohexyl-1H-pyrrolo[3,2-c]pyridin-2-amine], the EC50 is 1050 nM.
To `COC(=O)Nc1c(S(=O)(=O)c2ccccc2)c2nccnc2n1C1CCCCC1` [Example 24, methyl N-[7-(benzenesulfonyl)-5-cyclohexyl-5H-pyrrolo[2,3-b]pyrazin-6-yl]carbamate] belongs 2590 nM; to `Cc1ccc2c(S(=O)(=O)c3ccccc3)c(N)n(C3CCC(F)(F)CC3)c2n1` [Example 25, 3-(benzenesulfonyl)-1-(4,4-difluorocyclohexyl)-6-methyl-1H-pyrrolo[2,3-b]pyridin-2-amine], 1100 nM; to `COc1ncnc2c(S(=O)(=O)c3ccccc3)c(N)n(C3CCCCC3)c12` [Example 26, 7-(benzenesulfonyl)-5-cyclohexyl-4-methoxy-5H-pyrrolo[3,2-d]pyrimidin-6-amine], 79 nM.
Turning to `Nc1c(S(=O)(=O)c2ccccc2)c2cc(Cl)nnc2n1C1CCCCC1` [Example 27, 5-(benzenesulfonyl)-3-chloro-7-cyclohexyl-7H-pyrrolo[2,3-c]pyridazin-6-amine], the EC50 is 277 nM.
As to `Nc1c(S(=O)(=O)c2ccccc2)c2ccnnc2n1C1CCCCC1` [Example 28, 5-(benzenesulfonyl)-7-cyclohexyl-7H-pyrrolo[2,3-c]pyridazin-6-amine], the EC50 came out at 707 nM.
To `CCOc1ncnc2c(S(=O)(=O)c3ccccc3)c(N)n(C3CCC(F)(F)CC3)c12` [Example 29, 7-(benzenesulfonyl)-5-(4,4-difluorocyclohexyl)-4-ethoxy-5H-pyrrolo[3,2-d]pyrimidin-6-amine] belongs 31 nM.
In the case of `Nc1c(S(=O)(=O)c2ccccc2)c2ncnc(OCc3ccccc3)c2n1C1CCC(F)(F)CC1` [Example 30, 7-(benzenesulfonyl)-4-(benzyloxy)-5-(4,4-difluorocyclohexyl)-5H-pyrrolo[3,2-d]pyrimidin-6-amine] it was 199 nM; in that of `Nc1c(S(=O)(=O)c2ccccc2)c2ncnc(O)c2n1C1CCC(F)(F)CC1` [Example 31, 6-amino-5-(4,4-difluorocyclohexyl)-7-(phenylsulfonyl)-5H-pyrrolo[3,2-d]pyrimidin-4-ol], 6940 nM.
In the case of `Nc1c(S(=O)(=O)c2ccccc2)c2ncnc(Cl)c2n1C1CCC(F)(F)CC1` [Example 32, 7-(benzenesulfonyl)-4-chloro-5-(4,4-difluorocyclohexyl)-5H-pyrrolo[3,2-d]pyrimidin-6-amine], the EC50 worked out at 689 nM.
In the case of `CNc1ncnc2c(S(=O)(=O)c3ccccc3)c(N)n(C3CCC(F)(F)CC3)c12` [Example 33, 7-(benzenesulfonyl)-5-(4,4-difluorocyclohexyl)-4-N-methyl-5H-pyrrolo[3,2-d]pyrimidine-4,6-diamine], the EC50 came to 2720 nM.

A word on the EC50: it is the concentration that produces a half-maximal response.
